IC50 and melting point data for five compounds are collected here from patent US7084270B2, “Pyrimido compounds having antiproliferative activity” (Hoffman-La Roche Inc., priority 2002, dated 2006).

One may read the melting point as the temperature of the solid-liquid transition.

For one series, the target named is T1, KDR (Homo sapiens, UniProt P35968).
T1 construct: EEE-tag
Kind of series: KDR kinase HTRF assay. The series is classed as biochemical. As to conditions: enzyme inhibition, 0.3 mM ATP. The method, then: (§1) To determine inhibition of KDR, FGFR, EGFR, and PDGFR activity, kinase assays were conducted using an HTRF (Homogeneous Time Resolved Fluorescence) assay. This assay is described in A. J. Kolb et. al., Drug Discovery Today, 1998, 3(7), p 333.
Prior to kinase reaction, recombinant EEE-tagged KDR was activated in the presence of activation buffer (50 mM HEPES, pH 7.4, 1 mM DTT, 10% glycerol, 150 mM NaCl, 0.1 mM EDTA, 26 mM MgCl2, and 4 mM ATP). The enzyme was incubated at 4° C. for 1 hour.
(§2) Kinase activity assays were performed in 96-well polypropylene plates (Falcon) with a total volume of 90 μL in each well. Each well contained 1 μM KDR substrate (Biotin-EEEEYFELVAKKKK), 1 nM activated KDR, and a test compound with one of 8 assay concentrations ranging from 100 μM to […] (1:5 serial dilution). The kinase activity assay was done in the presence of 100 mM HEPES, pH 7.4, 1 mM DTT, 0.1 mM Na2VO4, 25 mM MgCl2, 50 mM NaCl (from KDR stock solution), 1% DMSO (from compound), 0.3 mM ATP (at Km concentration) and 0.02% BSA. The reaction was incubated at 37° C. for 30 minutes. To stop the KDR reaction, 72 μL of reaction mixture was transferred into a STOP plate containing 18 μL of revelation buffer (20 mM EDTA, 50 mM HEPES, pH 7.4, 0.02% BSA, 10 nM Eu-labelled anti-pY antibody (final conc. 2 nM), and 100 nM streptavidin (final conc. 20 nM)). After mixing, 35 μL of solution was transferred into duplicate wells of a 384-well black plate (Costar), and read at 615/665 nm on a Wallac Victor 5 reader.
(§3) Compound IC50 values were determined from duplicate sets of data, and calculated by using Excel and fitting data to equation Y=[(a−b)/{1+(X/c)^d]+b, where a and b are enzyme activity in the presence of no test inhibitor compound and an infinite amount of inhibitor test compound, respectively, c is the IC50 and d is the hill constant of the compound response. The IC50 value is the concentration of test compound that reduces by 50% the enzyme activity under the test conditions described.
Background: TR-FRET usually uses a lanthanide donor and a delayed reading to cut background.

For another series, the target named is PDGFR. Kind of series: PDGFR kinase HTRF assay. The series is classed as biochemical. The note with it: enzyme inhibition, 2.3 μM ATP. The method, then:
as §1, §2
The PDGFR kinase activity assay was performed with 1 μM substrate (Biotin-EEEEYFELV), 1.0 nM PDGFR, test compounds, 100 mM HEPES, pH 7.4, 1 mM DTT, 5 mM MgCl2, 2 mM MnCl2, 1% DMSO, 2.3 μM ATP (Km for PDGFR), 0.1 mM Na2VO4, and 0.02% BSA. The rest of the assay was performed in the same manner as the KDR assay.
as §3

For the next series, the target named is EGFR (Homo sapiens, UniProt P00533). Kind of series: EGFR kinase HTRF assay. The series is classed as biochemical. As to conditions: enzyme inhibition, 0.5 μM ATP. The method, then:
as §1, §2
The rest of the assay was performed in the same manner as the KDR assay.
as §3

For series [1], the system named is Human umbilical vein endothelial cells (HUVEC), VEGF-stimulated. Kind of series: VEGF-stimulated HUVEC proliferation assay (BrdU). The series is classed as cell-based. The note with it: BrdU labeling, VEGF 20 ng per mL, 24 hour exposure, read-out: HUVEC/VEFG IC50. Here is the method:
The antiproliferative activity of test compounds of this invention in cell-based assays was evaluated by BrdU assay using the BrdU kit (Roche Biochemicals 1-647-229). Human umbilical vein endothelial cells (Clonetics CC-2519) were cultured in EGM-2 (Clonetics CC-3162) medium and seeded at 10000 cells per well in a volume of 200 μL of EGM-2 (Clonetics CC-3162) media in a 96-well flat bottom plates (Costar 3595) overnight. After 24 hours of growth at 37° C. with 5% CO2, the incubation media was removed slowly by aspiration and the content of each well was washed with 300 μL pre-warmed EBM-2 (Clonetics CC-3156) containing 50 μg per mL of gentamycin and 50 ng per mL of amphotercin-B (Clonetics CC-4083). Subsequently, the remaining media was again aspirated and replaced with 160 μL per well of serum starvation media (EBM-2 supplemented with 1% heat inactivated FBS (Clonetics CC-4102), 50 μg per mL gentamycin and 50 ng per mL of amphotercin-B (Clonetics CC-4083), 10 units per mL of Wyeth-Ayerst heparin (NDC0641-0391-25), and 2 mM L-glutamine (GIBCO 25030-081). After serum starving the cells for 24 hours, 20 μL of test compound at 10× test concentration in serum starvation medium with 2.5% DMSO was added to the appropriate wells. The control wells contained 20 μL of serum starvation medium with 2.5% DMSO. Plates were returned to the incubator for 2 hours. […]
(§4) After 24 hour exposure to the test compounds, the cells were labeled with BrdU (Roche Biochemicals 1-647-229), by adding 20 μL per well of BrdU labeling reagent that has been diluted (1:100) in serum starvation medium. […] The plates were read at 450 nm with reference wavelength of 650 nm. The percent inhibition for each test compound was calculated by subtracting the absorbency of the blank (no cells) wells from all wells, then subtracting the division of the average absorbency of each test duplicate by the average of the controls from 1. […] The IC50 is determined from the linear regression of a plot of the logarithm of the concentration versus percent inhibition.

The target of the next series is T2, FGFR.
T2 construct: fused on or other part: GST tag
As to the kind of experiment: FGFR kinase HTRF assay. The note with it: enzyme inhibition, 10 μM ATP. The series is classed as biochemical. The method, then:
as §1, §2
FGFR, EGFR, and PDGFR activity assays were carried out as described above for the KDR activity assay with the following differences. GST-tagged FGFR enzyme was activated at room temperature for 1 hour in the following activation buffer: 100 mM HEPES, pH 7.4, 50 mM NaCl, 20 mM MgCl2, and 4 mM ATP. […] The rest of the assay was performed in the same manner as KDR assay.
as §3

Series [2] has as its system Human umbilical vein endothelial cells (HUVEC), FGF-stimulated. Kind of series: FGF-stimulated HUVEC proliferation assay (BrdU). It is filed as cell-based. As to conditions: BrdU labeling, FGF 5 ng per mL, 24 hour exposure, read-out: HUVEC/bFGFR IC50. The method, then: The antiproliferative activity of test compounds of this invention in cell-based assays was evaluated by BrdU assay using the BrdU kit (Roche Biochemicals 1-647-229). Human umbilical vein endothelial cells (Clonetics CC-2519) were cultured in EGM-2 (Clonetics CC-3162) medium and seeded at 10000 cells per well in a volume of 200 μL of EGM-2 (Clonetics CC-3162) media in a 96-well flat bottom plates (Costar 3595) overnight. After 24 hours of growth at 37° C. with 5% CO2, the incubation media was removed slowly by aspiration and the content of each well was washed with 300 μL pre-warmed EBM-2 (Clonetics CC-3156) containing 50 μg per mL of gentamycin and 50 ng per mL of amphotercin-B (Clonetics CC-4083). Subsequently, the remaining media was again aspirated and replaced with 160 μL per well of serum starvation media (EBM-2 supplemented with 1% heat inactivated FBS (Clonetics CC-4102), 50 μg per mL gentamycin and 50 ng per mL of amphotercin-B (Clonetics CC-4083), 10 units per mL of Wyeth-Ayerst heparin (NDC0641-0391-25), and 2 mM L-glutamine (GIBCO 25030-081). After serum starving the cells for 24 hours, 20 μL of test compound at 10× test concentration in serum starvation medium with 2.5% DMSO was added to the appropriate wells. The control wells contained 20 μL of serum starvation medium with 2.5% DMSO. Plates were returned to the incubator for 2 hours. After pre-incubating the cells with the test compounds for 2 hours, 20 μL of growth factors at 10×assay concentration diluted in serum starvation media, FGF at 50 ng per mL, or VEGF (R&D systems 293-VE) at 200 ng per mL were added. The final concentration of FGF in the assay was 5 ng per mL, and the final concentration of VEGF in the assays was 20 ng per mL. The growth factor free control wells had 20 μL per well of serum starvation media with the same amount of BSA as the wells with growth factors. The plates were returned to the incubator for an additional 22 hours.
as §4, with “medium. The plates were then returned to the incubator for 4 hours. The labeling medium was removed by draining the medium onto paper towels.” for “medium.”
(In general: Incorporation of labelled thymidine or its analogues reports DNA synthesis.)

Each structure is given as a SMILES string. Like-named read-outs stand apart in the source and are kept apart here.

Sequence of EGFR (P00533 25-1210, species assumed): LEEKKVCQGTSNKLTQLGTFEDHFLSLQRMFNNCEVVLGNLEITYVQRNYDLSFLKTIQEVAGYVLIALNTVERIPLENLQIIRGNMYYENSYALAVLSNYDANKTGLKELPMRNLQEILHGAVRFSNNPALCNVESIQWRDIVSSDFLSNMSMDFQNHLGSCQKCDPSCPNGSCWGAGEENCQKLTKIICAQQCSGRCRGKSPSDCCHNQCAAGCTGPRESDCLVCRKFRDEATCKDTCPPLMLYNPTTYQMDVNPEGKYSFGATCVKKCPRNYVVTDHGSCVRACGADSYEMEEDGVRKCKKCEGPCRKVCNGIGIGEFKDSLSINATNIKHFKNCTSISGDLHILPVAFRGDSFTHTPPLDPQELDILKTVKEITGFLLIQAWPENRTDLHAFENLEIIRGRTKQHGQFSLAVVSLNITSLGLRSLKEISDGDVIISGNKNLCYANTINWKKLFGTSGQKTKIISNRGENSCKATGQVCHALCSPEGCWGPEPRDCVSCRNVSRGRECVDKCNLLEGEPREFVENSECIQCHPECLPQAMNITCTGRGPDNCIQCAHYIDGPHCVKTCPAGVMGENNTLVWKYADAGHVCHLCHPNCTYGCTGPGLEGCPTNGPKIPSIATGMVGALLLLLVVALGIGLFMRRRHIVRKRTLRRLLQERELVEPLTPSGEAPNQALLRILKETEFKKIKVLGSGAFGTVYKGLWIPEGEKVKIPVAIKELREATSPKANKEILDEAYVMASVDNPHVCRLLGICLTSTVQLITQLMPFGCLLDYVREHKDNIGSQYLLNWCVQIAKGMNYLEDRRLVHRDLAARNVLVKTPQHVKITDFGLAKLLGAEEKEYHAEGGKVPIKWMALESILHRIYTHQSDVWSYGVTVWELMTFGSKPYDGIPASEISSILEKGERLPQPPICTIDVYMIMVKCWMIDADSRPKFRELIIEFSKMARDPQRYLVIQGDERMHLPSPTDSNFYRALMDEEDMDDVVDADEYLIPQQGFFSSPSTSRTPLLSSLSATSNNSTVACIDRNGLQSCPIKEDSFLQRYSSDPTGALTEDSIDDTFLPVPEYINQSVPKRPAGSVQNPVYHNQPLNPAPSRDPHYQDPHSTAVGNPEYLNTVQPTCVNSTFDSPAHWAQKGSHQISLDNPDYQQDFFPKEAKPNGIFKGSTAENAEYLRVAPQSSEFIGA
T1 sequence (P35968 20-1356, species assumed): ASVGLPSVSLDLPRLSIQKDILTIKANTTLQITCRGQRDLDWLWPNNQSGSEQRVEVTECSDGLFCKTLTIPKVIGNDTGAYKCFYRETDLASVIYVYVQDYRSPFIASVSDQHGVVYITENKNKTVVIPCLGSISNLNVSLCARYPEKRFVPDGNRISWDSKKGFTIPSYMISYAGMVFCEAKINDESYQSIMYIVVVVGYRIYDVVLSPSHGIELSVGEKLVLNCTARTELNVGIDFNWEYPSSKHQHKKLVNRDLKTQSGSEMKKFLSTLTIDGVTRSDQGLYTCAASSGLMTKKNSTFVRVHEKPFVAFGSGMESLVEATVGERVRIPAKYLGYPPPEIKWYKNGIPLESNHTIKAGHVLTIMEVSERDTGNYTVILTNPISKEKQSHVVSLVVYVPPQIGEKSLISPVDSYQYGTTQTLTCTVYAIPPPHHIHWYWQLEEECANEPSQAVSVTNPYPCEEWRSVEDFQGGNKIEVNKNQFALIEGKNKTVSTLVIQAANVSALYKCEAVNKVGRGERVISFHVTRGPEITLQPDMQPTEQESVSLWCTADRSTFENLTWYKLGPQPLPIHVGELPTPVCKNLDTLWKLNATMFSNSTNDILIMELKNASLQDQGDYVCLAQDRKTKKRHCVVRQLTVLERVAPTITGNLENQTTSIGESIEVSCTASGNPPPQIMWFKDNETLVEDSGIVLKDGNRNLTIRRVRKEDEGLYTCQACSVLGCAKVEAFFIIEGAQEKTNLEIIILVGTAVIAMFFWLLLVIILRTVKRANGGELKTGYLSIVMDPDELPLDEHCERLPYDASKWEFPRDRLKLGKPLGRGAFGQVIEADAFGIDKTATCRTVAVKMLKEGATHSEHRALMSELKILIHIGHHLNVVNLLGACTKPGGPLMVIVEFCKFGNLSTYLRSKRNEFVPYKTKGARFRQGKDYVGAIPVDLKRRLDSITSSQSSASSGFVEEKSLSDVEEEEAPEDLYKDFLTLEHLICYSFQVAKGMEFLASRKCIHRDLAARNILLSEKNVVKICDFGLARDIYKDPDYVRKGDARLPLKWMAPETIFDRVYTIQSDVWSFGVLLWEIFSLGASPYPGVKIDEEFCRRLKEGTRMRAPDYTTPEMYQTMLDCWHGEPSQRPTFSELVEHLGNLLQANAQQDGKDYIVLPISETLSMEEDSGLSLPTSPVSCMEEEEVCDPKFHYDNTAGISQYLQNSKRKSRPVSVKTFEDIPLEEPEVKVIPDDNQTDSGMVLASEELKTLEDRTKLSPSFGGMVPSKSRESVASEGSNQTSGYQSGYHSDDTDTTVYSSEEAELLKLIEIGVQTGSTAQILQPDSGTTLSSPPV

Take `COc1ccc(Nc2ncc3c(n2)N(c2ccccc2)C(=O)N(c2ccc(OC)cc2)C3)cc1` [Example 20, 3-(4-Methoxyphenyl)-7-[(4-methoxyphenyl)amino]-1-phenyl-1,3,4-trihydropyrimidino[4,5-d]pyrimidin-2-one]: the IC50 at KDR came out at 24 nM; on PDGFR, 82 nM; against EGFR, 180 nM; in series [1] it was 96 nM; on FGFR it was 91 nM; in series [2] (Homo sapiens, HUVEC, 24 h) it was 350 nM.
Take `COc1ccc(N2Cc3cnc(Nc4ccccc4)nc3N(c3ccccc3)C2=O)cc1` [Example 1g, 3-(4-Methoxyphenyl)-1-phenyl-7-(phenylamino)-1,3,4-trihydropyrimidino[4,5-d]pyrimidin-2-one]: the IC50 against KDR amounted to 44 nM; against PDGFR, 130 nM; against EGFR, 360 nM; in series [1] it was 120 nM; at FGFR, 190 nM; in series [2] (Homo sapiens, HUVEC, 24 h), 310 nM.
As to `COc1ccc(N2Cc3cnc(N(C(=O)OCOC(=O)CN(C)C)c4ccccc4)nc3N(c3ccccc3)C2=O)cc1` [Example 5a], the melting point came to 172 °C.
Consider `COc1ccc(N2Cc3cnc(Nc4ccc(O)cc4)nc3N(c3ccccc3)C2=O)cc1` [Example 18, 7-[(4-Hydroxyphenyl)amino]-3-(4-methoxyphenyl)-1-phenyl-1,3,4-trihydropyrimidino[4,5-d]pyrimidin-2-one], for which the IC50 against KDR stood at 29 nM; against PDGFR, 64 nM; against EGFR, 130 nM; in series [1], 63 nM; on FGFR it was 110 nM; in series [2] (Homo sapiens, HUVEC, 24 h) it was 150 nM.
For the compound `COc1ccc(N2Cc3cnc(Nc4ccccc4)nc3N(c3ccccc3)C2=O)cc1.CS(=O)(=O)O` [Example 1h, 3-(4-Methoxyphenyl)-1-phenyl-7-(phenylamino)-1,3,4-trihydropyrimidino[4,5-d]pyrimidin-2-one methanesulfonate salt], the melting point lay within 245 to 251 °C. On KDR, the IC50 came to 76 nM. At PDGFR (methanesulfonate salt), the IC50 is 150 nM. At EGFR, this compound displayed an IC50 of 350 nM. Also, at FGFR (methanesulfonate salt), the IC50 is 170 nM. Also, the IC50 in series [2] (methanesulfonate salt) came to 430 nM.
